Columns and labels:
barnyardgrass [1] = assay: Test A preemergence; format: in vivo, Echinochloa crus-galli
How it was run: (§1)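 Compounds in non-phytotoxic solvent with surfactant applied as soil spray preemergence, or postemergence to plants 2-10 cm at one- to two-leaf stage, in loam/sand. After approximately 10 days in greenhouse, injury rated visually versus untreated controls, 0 (no effect) to 100 (complete control).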

kochia [2] = assay: Test A preemergence; format: in vivo, Kochia scoparia
How it was run: as §1

ragweed [3] = assay: Test A preemergence; format: in vivo, Ambrosia elatior
How it was run: as §1

Italian ryegrass [4] = assay: Test A preemergence; format: in vivo, Lolium multiflorum
How it was run: as §1

giant foxtail [5] = assay: Test A preemergence; format: in vivo, Setaria faberii
How it was run: as §1

pigweed [6] = assay: Test A preemergence; format: in vivo, Amaranthus retroflexus
How it was run: as §1

barnyardgrass [7] = assay: Test A postemergence; format: in vivo, Echinochloa crus-galli; conditions: for Plant response rating, Barnyardgrass: 0 to 100 scale, 0 no effect, 100 complete control
How it was run: as §1

kochia [8] = assay: Test A postemergence; format: in vivo, Kochia scoparia
How it was run: as §1

ragweed [9] = assay: Test A postemergence; format: in vivo, Ambrosia elatior
How it was run: as §1

Italian ryegrass [10] = assay: Test A postemergence; format: in vivo, Lolium multiflorum
How it was run: as §1

giant foxtail [11] = assay: Test A postemergence; format: in vivo, Setaria faberii; conditions: for Plant response rating, Foxtail, Giant: 0 to 100 scale, 0 no effect, 100 complete control
How it was run: as §1

pigweed [12] = assay: Test A postemergence; format: in vivo, Amaranthus retroflexus; conditions: for Plant response rating, Pigweed: 0 to 100 scale, 0 no effect, 100 complete control
How it was run: as §1

wheat = assay: Test A postemergence; format: in vivo, Triticum aestivum
How it was run: as §1

corn = assay: Test A postemergence; format: in vivo, Zea mays; conditions: for Plant response rating, Corn: 0 to 100 scale, 0 no effect, 100 complete control
How it was run: as §1

blackgrass = assay: Test A postemergence; format: in vivo, Alopecurus myosuroides
How it was run: as §1

galium = assay: Test A postemergence; format: in vivo, Galium aparine
How it was run: as §1

rice = assay: Test B flooded paddy test; format: in vivo, Oryza sativa; conditions: Flood, 250 g ai/ha; 0 to 100 scale where 0 is no effect and 100 is complete control
How it was run: (§2)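 Visual ratings on a 0 to 100 scale, where 100 means complete control, compared treated plants with controls after 13 to 15 days in a greenhouse. Treatment went into paddy water 3 cm deep over the soil, applied to plants at the 2-leaf stage.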

sedge, umbrella = assay: Test B flooded paddy test; format: in vivo, Cyperus difformis; conditions: Flood, 250 g ai/ha; 0 to 100 scale where 0 is no effect and 100 is complete control
How it was run: as §2

Heteranthera limosa = assay: Test B flooded paddy test; format: in vivo; conditions: Flood, 250 g ai/ha; 0 to 100 scale where 0 is no effect and 100 is complete control
How it was run: as §2

barnyardgrass [13] = assay: Test B flooded paddy test; format: in vivo, Echinochloa crus-galli; conditions: Flood, 250 g ai/ha; 0 to 100 scale where 0 is no effect and 100 is complete control
How it was run: as §2

[14] = 125 g ai/ha, 0 to 100 scale where 0 is no effect and 100 is complete control
[15] = 31 g ai/ha, 0 to 100 scale, 0 no effect, 100 complete control
[16] = 31 g ai/ha, 0 to 100 scale where 0 is no effect and 100 is complete control, visual, approximately 10 days
[17] = 125 g ai/ha, 0 to 100 scale, 0 no effect, 100 complete control
[18] = 500 g ai/ha, 0 to 100 scale where 0 is no effect and 100 is complete control

With `CCCOc1cnn(-c2c(F)cccc2Oc2ncc(Cl)cn2)c1` [Compound 127] the “Barnyardgrass plant response rating (0 to 100 scale)” value (barnyardgrass [1]; 31 g ai/ha) was 0, the “Plant response rating, Barnyardgrass” value (barnyardgrass [1]; [14]) was 40 and the “Kochia plant response rating (0 to 100 scale)” value (kochia [2]; 31 g ai/ha) was 0. For the same compound, the “Plant response rating, Kochia” value (kochia [2]; [14]) was 0, the “Ragweed plant response rating (0 to 100 scale)” value (ragweed [3]; 31 g ai/ha) was 0 and the “Plant response rating, Ragweed” value (ragweed [3]; [14]) was 0. For the same compound, the “Ryegrass, Italian plant response rating (0 to 100 scale)” value (Italian ryegrass [4]; 31 g ai/ha) was 0, the “Plant response rating, Ryegrass, Italian” value (Italian ryegrass [4]; [14]) was 0 and the “Foxtail, Giant plant response rating (0 to 100 scale)” value (giant foxtail [5]; 31 g ai/ha) was 10. The “Plant response rating, Foxtail, Giant” value (giant foxtail [5]; [14]) was 60, the “Pigweed plant response rating (0 to 100 scale)” value (pigweed [6]; 31 g ai/ha) was 0 and the “Plant response rating, Pigweed” value (pigweed [6]; [14]) was 10. The “Plant response rating, Barnyardgrass” value (barnyardgrass [7]; 31 g ai/ha) was 0, the “Barnyardgrass plant response rating” value (barnyardgrass [7]; [14]) was 10 and the “Plant response rating, Kochia” value (kochia [8]; [15]) was 0. For the same compound, the “Kochia plant response rating” value (kochia [8]; [14]) was 30, the “Plant response rating, Ragweed” value (ragweed [9]; [15]) was 0 and the “Ragweed plant response rating” value (ragweed [9]; [14]) was 10. The “Plant response rating, Ryegrass, Italian” value (Italian ryegrass [10]; [15]) was 0, the “Ryegrass, Italian plant response rating” value (Italian ryegrass [10]; [14]) was 0 and the “Plant response rating, Foxtail, Giant” value (giant foxtail [11]; 31 g ai/ha) was 0. For the same compound, the “Foxtail, Giant plant response rating” value (giant foxtail [11]; [14]) was 20, the “Plant response rating, Pigweed” value (pigweed [12]; 31 g ai/ha) was 20 and the “Pigweed plant response rating” value (pigweed [12]; [14]) was 30. The “Plant response rating, Wheat” value (wheat; [15]) was 0, the “Wheat plant response rating” value (wheat; [14]) was 0 and the “Plant response rating, Corn” value (corn; 31 g ai/ha) was 0. For the same compound, the “Corn plant response rating” value (corn; [14]) was 10, the “Plant response rating, Blackgrass” value (blackgrass; [15]) was 0 and the “Blackgrass plant response rating” value (blackgrass; [14]) was 10. For the same compound, the “Plant response rating, Galium” value (galium; [15]) was 10, the “Galium plant response rating” value (galium; [14]) was 20 and the “Plant response rating, Rice” value (rice) was 0. The “Plant response rating, Sedge, Umbrella” value (sedge, umbrella) was 0, the “Plant response rating, Ducksalad” value (Heteranthera limosa) was 60 and the “Plant response rating, Barnyardgrass” value (barnyardgrass [13]) was 0.

`FCc1cccc(Oc2ncc(Br)cn2)c1-n1cc(Cl)cn1` [Compound 251] was tested, and the “Plant response rating, Barnyardgrass” value (barnyardgrass [1]; [16]) was 30, the “Barnyardgrass plant response rating (0 to 100 scale, 0 is no effect, 100 is complete control)” value (barnyardgrass [1]; 125 g ai/ha) was 50 and the “Plant response rating, Kochia” value (kochia [2]; [16]) was 10. For the same compound, the “Kochia plant response rating (0 to 100 scale)” value (kochia [2]; 125 g ai/ha) was 70, the “Plant response rating, Ragweed” value (ragweed [3]; [16]) was 0 and the “Ragweed plant response rating (0 to 100 scale)” value (ragweed [3]; 125 g ai/ha) was 30. For the same compound, the “Plant response rating, Ryegrass, Italian” value (Italian ryegrass [4]; [16]) was 0, the “Ryegrass, Italian plant response rating (0 to 100 scale)” value (Italian ryegrass [4]; 125 g ai/ha) was 0 and the “Plant response rating, Foxtail, Giant” value (giant foxtail [5]; [16]) was 50. The “Foxtail, Giant plant response rating (0 to 100 scale)” value (giant foxtail [5]; 125 g ai/ha) was 80, the “Plant response rating, Pigweed” value (pigweed [6]; [16]) was 70 and the “Pigweed plant response rating (0 to 100 scale)” value (pigweed [6]; 125 g ai/ha) was 90. The “Plant response rating, Barnyardgrass” value (barnyardgrass [7]; 31 g ai/ha) was 10, the “Plant response rating, Barnyardgrass” value (barnyardgrass [7]; 125 g ai/ha) was 30 and the “Plant response rating, Kochia” value (kochia [8]; [15]) was 40. The “Plant response rating, Kochia” value (kochia [8]; [17]) was 60, the “Plant response rating, Ragweed” value (ragweed [9]; [15]) was 10 and the “Plant response rating, Ragweed” value (ragweed [9]; [17]) was 20. The “Plant response rating, Ryegrass, Italian” value (Italian ryegrass [10]; [15]) was 0, the “Plant response rating, Ryegrass, Italian” value (Italian ryegrass [10]; [17]) was 10 and the “Plant response rating, Foxtail, Giant” value (giant foxtail [11]; 31 g ai/ha) was 30. For the same compound, the “Plant response rating, Foxtail, Giant” value (giant foxtail [11]; 125 g ai/ha) was 60, the “Plant response rating, Pigweed” value (pigweed [12]; 31 g ai/ha) was 60 and the “Plant response rating, Pigweed” value (pigweed [12]; 125 g ai/ha) was 70. The “Plant response rating, Wheat” value (wheat; [15]) was 0, the “Plant response rating, Wheat” value (wheat; [17]) was 0 and the “Plant response rating, Corn” value (corn; 31 g ai/ha) was 0. The “Plant response rating, Corn” value (corn; 125 g ai/ha) was 20, the “Plant response rating, Blackgrass” value (blackgrass; [15]) was 50 and the “Plant response rating, Blackgrass” value (blackgrass; [17]) was 70. The “Plant response rating, Galium” value (galium; [15]) was 20, the “Plant response rating, Galium” value (galium; [17]) was 30 and the “Plant response rating, Rice” value (rice) was 0. The “Plant response rating, Sedge, Umbrella” value (sedge, umbrella) was 40, the “Plant response rating, Ducksalad” value (Heteranthera limosa) was 75 and the “Plant response rating, Barnyardgrass” value (barnyardgrass [13]) was 0.

`N#Cc1cccc(Oc2ncc(Cl)cn2)c1-n1cc(SC(F)(F)F)cn1` [Compound 143, 3-[(5-chloro-2-pyrimidinyl)oxy]-2-[4-(trifluoromethylthio)-1H-pyrazol-1-yl]-benzonitrile] was tested, and the “Plant response rating, Barnyardgrass” value (barnyardgrass [1]; [14]) was 30, the pest or weed control at 500 g/ha (barnyardgrass [1]; Echinochloa crus-galli, pre-emergence, 240 h, 500 g ai/ha, 0 to 100 scale where 0 is no effect and 100 is complete control, read-out: Barnyardgrass plant response rating) was 100% and the “Plant response rating, Kochia” value (kochia [2]; [14]) was 50. For the same compound, the “Kochia plant response rating” value (kochia [2]; [18]) was 100, the “Plant response rating, Ragweed” value (ragweed [3]; [14]) was 0 and the “Ragweed plant response rating” value (ragweed [3]; [18]) was 20. For the same compound, the “Plant response rating, Ryegrass, Italian” value (Italian ryegrass [4]; [14]) was 0, the “Ryegrass, Italian plant response rating” value (Italian ryegrass [4]; [18]) was 20 and the “Plant response rating, Foxtail, Giant” value (giant foxtail [5]; [14]) was 80. For the same compound, the pest or weed control at 500 g/ha (giant foxtail [5]; Setaria faberi, pre-emergence, 240 h, 500 g ai/ha, 0 to 100 scale where 0 is no effect and 100 is complete control, read-out: Foxtail, Giant plant response rating) was 100%, the “Plant response rating, Pigweed” value (pigweed [6]; [14]) was 90 and the pest or weed control at 500 g/ha (pigweed [6]; Amaranthus retroflexus, pre-emergence, 240 h, 500 g ai/ha, 0 to 100 scale where 0 is no effect and 100 is complete control, read-out: Pigweed plant response rating) was 100%. The “Barnyardgrass plant response rating” value (barnyardgrass [7]; [14]) was 0, the pest or weed control at 500 g/ha (barnyardgrass [7]; Echinochloa crus-galli, post-emergence, 240 h, 500 g ai/ha, 0 to 100 scale where 0 is no effect and 100 is complete control, read-out: Plant response rating, Barnyardgrass) was 80% and the “Kochia plant response rating” value (kochia [8]; [14]) was 30. For the same compound, the “Plant response rating, Kochia” value (kochia [8]; [18]) was 90, the “Ragweed plant response rating” value (ragweed [9]; [14]) was 0 and the “Plant response rating, Ragweed” value (ragweed [9]; [18]) was 100. For the same compound, the “Ryegrass, Italian plant response rating” value (Italian ryegrass [10]; [14]) was 0, the “Plant response rating, Ryegrass, Italian” value (Italian ryegrass [10]; [18]) was 90 and the “Foxtail, Giant plant response rating” value (giant foxtail [11]; [14]) was 0. The pest or weed control at 500 g/ha (giant foxtail [11]; Setaria faberi, post-emergence, 240 h, 500 g ai/ha, 0 to 100 scale where 0 is no effect and 100 is complete control, read-out: Plant response rating, Foxtail, Giant) was 100%, the “Pigweed plant response rating” value (pigweed [12]; [14]) was 70 and the pest or weed control at 500 g/ha (pigweed [12]; Amaranthus retroflexus, post-emergence, 500 g ai/ha, 0 to 100 scale where 0 is no effect and 100 is complete control, read-out: Plant response rating, Pigweed) was 100%. For the same compound, the “Wheat plant response rating” value (wheat; [14]) was 0, the “Plant response rating, Wheat” value (wheat; [18]) was 30 and the “Corn plant response rating” value (corn; [14]) was 30. The Corn plant response rating (crop injury, 0 = no effect, 100 = complete kill) at 500 g/ha (corn; Zea mays, post-emergence, 240 h, 500 g ai/ha, 0 to 100 scale where 0 is no effect and 100 is complete control) was 40%, the “Blackgrass plant response rating” value (blackgrass; [14]) was 0 and the “Plant response rating, Blackgrass” value (blackgrass; [18]) was 90. The “Galium plant response rating” value (galium; [14]) was 30, the “Plant response rating, Galium” value (galium; [18]) was 100 and the “Plant response rating, Rice” value (rice) was 0. For the same compound, the “Plant response rating, Sedge, Umbrella” value (sedge, umbrella) was 0, the “Plant response rating, Ducksalad” value (Heteranthera limosa) was 40 and the “Plant response rating, Barnyardgrass” value (barnyardgrass [13]) was 0.

— patent publication US9695155B2, “Herbicidal substituted pyrimidinyloxy benzene compounds” (E. I. DU PONT DE NEMOURS AND COMPANY, priority 2013, dated 2017)
